Source: publication PMC5776727 (Bioorganic & medicinal chemistry letters, 2015)

Target: CXCR4 (Homo sapiens, UniProt P61073)
Assay: inhibition of CXCL12
Format: cell-based
Settings: read-out: SDF-1 Ca2+ Flux CEM-1 IC50; SDF-1 induced calcium release; duplicate

Chain of CXCR4 (P61073 whole entry): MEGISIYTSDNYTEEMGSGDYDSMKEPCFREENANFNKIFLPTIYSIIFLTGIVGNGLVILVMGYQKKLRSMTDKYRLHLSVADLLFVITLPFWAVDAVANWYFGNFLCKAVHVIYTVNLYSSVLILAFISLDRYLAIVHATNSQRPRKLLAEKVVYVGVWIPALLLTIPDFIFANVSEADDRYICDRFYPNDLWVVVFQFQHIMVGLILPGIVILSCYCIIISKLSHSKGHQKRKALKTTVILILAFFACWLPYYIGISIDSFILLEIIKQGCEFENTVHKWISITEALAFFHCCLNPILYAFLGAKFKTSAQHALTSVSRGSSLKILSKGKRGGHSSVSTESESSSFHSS

IC50: 21 µM
SMILES: NCCCCN(C[C@H]1CN(C(=O)Nc2ccccc2)CCN1)[C@H]1CCCc2cccnc21 [Compound 57a]
